Results published in ChEMBL document CHEMBL1909046, “DrugMatrix in vitro pharmacology data”.

Key:
Insulin receptor = Insulin receptor (Rattus norvegicus, UniProt P15127); type: cell membranes, Wistar, Liver, Membrane; also: in other assays of this panel Not Active means under 50% inhibition at 10 µM
[1] = DRUGMATRIX: Serotonin (5-Hydroxytryptamine) 5-HT3 radioligand binding (ligand: [3H] GR-65630); type: cell membranes, Membrane; settings: hek293; Not Active = under 50% inhibition at 10 µM
[2] = biological target: T1, Alpha-1A adrenergic receptor (Rattus norvegicus, UniProt P43140); experiment: DRUGMATRIX: Alpha-1A adrenergic receptor radioligand binding (ligand: prazosin); type: cell membranes, Wistar, Submaxillary gland, Membrane; settings: Not Active = under 50% inhibition at 10 µM; for Ki: read-out: Ki
T1 sequence (P43140 whole entry): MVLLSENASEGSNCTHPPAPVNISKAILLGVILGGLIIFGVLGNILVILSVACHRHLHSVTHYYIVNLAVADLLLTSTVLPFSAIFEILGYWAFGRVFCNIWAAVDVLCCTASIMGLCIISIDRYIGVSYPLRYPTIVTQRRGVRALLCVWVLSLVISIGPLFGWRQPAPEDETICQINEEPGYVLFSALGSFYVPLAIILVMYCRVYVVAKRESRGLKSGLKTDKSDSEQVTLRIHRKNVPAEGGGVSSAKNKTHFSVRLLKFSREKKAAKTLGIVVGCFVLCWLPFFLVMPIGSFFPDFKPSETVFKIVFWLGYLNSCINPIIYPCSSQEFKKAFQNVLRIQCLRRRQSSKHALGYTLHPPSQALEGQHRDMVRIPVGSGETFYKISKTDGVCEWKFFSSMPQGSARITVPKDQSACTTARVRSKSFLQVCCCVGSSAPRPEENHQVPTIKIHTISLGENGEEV

Estrogen receptor = biological target: T2, Estrogen receptor (Homo sapiens, UniProt P03372); settings: sf9; also: in other assays of this panel Not Active means under 50% inhibition at 10 µM
T2 sequence (P03372 whole entry): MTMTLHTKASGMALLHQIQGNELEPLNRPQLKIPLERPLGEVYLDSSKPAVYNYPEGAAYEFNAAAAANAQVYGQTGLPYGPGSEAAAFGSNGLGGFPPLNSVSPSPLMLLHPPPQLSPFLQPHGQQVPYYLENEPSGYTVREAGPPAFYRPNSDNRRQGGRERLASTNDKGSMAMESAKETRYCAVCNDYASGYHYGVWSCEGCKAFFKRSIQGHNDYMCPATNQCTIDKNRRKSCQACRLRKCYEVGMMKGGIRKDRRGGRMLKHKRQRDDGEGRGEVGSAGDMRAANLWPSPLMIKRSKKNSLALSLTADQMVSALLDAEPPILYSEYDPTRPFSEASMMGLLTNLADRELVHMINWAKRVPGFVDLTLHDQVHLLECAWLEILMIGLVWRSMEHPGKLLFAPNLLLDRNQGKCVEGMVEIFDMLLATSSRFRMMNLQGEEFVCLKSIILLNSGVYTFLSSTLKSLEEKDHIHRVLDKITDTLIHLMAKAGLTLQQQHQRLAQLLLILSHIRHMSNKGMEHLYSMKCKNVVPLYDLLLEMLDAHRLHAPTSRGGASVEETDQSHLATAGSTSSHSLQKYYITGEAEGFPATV

[3] = biological target: Beta-2 adrenergic receptor (Homo sapiens, UniProt P07550); experiment: DRUGMATRIX: Adrenergic beta2 radioligand binding (ligand: [3H] CGP-12177); type: cell membranes, Membrane; settings: cho; Not Active = under 50% inhibition at 10 µM
Beta-2 adrenergic receptor, sequence (P07550 whole entry): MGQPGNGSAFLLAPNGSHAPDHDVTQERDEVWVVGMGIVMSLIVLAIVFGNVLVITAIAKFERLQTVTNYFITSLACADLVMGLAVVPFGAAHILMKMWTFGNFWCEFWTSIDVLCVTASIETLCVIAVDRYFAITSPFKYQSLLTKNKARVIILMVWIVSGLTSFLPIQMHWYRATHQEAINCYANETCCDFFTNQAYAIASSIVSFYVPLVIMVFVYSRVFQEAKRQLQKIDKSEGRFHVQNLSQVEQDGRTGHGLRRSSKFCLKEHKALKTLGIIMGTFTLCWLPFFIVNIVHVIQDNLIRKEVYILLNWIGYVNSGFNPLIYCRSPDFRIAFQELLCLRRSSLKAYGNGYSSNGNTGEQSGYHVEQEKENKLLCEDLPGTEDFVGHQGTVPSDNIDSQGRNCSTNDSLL

[4] = biological target: T3, 3-hydroxy-3-methylglutaryl-coenzyme A reductase (Homo sapiens, UniProt P04035); design: species or system Escherichia coli;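 also: enzyme inhibition assay of HMG-CoA reductase using radiolabeled [14C]HMG-CoA as substrate; in other assays of this panel Not Active means under 50% inhibition at 10 µM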
T3 sequence (P04035 whole entry): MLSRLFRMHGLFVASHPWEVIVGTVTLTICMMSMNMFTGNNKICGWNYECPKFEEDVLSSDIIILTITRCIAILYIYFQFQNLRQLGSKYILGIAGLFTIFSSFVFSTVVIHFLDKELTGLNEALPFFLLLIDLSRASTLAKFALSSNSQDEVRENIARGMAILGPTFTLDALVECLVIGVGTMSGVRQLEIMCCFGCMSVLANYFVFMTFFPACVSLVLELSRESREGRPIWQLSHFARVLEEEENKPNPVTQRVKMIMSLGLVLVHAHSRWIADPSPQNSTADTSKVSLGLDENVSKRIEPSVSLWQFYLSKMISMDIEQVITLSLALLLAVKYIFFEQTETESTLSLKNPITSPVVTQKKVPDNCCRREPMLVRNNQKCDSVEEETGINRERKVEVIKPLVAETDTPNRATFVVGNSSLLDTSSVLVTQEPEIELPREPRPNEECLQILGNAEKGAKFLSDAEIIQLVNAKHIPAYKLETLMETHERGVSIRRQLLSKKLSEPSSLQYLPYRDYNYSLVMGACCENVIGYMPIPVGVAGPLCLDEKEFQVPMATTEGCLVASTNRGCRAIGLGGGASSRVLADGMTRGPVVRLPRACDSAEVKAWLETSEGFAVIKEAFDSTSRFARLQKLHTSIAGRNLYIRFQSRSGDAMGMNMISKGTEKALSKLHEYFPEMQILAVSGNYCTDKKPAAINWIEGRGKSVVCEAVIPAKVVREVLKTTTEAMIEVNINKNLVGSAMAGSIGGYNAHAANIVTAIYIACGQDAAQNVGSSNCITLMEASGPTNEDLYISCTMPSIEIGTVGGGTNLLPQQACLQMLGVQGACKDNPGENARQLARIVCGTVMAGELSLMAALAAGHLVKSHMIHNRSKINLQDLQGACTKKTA

Insulin receptor, sequence (P15127 27-759 limits assumed): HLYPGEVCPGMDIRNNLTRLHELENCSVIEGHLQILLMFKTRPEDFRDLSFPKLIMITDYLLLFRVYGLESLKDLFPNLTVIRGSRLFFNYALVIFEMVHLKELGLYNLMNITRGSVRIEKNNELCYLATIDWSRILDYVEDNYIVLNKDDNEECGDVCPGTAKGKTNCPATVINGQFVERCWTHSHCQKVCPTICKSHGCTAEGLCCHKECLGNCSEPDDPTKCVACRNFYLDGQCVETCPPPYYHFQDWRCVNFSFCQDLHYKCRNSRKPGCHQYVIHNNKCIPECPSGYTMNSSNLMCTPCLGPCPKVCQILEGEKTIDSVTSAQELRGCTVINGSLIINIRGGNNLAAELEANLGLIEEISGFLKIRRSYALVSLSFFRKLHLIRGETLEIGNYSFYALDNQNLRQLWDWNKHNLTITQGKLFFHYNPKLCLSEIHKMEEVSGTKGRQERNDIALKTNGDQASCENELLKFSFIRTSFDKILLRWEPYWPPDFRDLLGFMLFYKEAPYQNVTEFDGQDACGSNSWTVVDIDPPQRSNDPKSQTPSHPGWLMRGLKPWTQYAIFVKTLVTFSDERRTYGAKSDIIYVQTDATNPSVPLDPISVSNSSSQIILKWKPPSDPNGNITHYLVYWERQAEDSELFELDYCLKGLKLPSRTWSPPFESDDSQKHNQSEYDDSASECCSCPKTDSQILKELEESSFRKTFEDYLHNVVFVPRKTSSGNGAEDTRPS
Insulin receptor, sequence (P15127 764-1383 limits assumed): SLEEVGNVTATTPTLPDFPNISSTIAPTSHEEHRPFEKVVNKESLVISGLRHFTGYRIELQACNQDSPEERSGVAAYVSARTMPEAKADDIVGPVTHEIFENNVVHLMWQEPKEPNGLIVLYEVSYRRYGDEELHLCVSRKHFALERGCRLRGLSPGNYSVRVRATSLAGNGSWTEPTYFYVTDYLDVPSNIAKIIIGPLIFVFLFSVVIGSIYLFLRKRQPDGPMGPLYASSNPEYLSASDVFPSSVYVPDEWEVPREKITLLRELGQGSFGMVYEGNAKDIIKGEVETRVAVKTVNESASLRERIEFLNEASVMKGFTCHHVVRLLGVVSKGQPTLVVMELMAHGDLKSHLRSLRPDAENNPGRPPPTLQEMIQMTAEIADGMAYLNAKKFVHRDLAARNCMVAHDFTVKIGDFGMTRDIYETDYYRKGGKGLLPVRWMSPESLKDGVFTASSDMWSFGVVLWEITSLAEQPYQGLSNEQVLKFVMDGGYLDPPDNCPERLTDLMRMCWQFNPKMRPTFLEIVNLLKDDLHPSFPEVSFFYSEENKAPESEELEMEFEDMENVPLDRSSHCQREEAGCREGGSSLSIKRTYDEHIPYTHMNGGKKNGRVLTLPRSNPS

Row | Compound | IC50 (Insulin receptor) | IC50 [1] | Ki [1] | IC50 [2] | IC50 (Estrogen receptor) | IC50 [3] | IC50 [4] | IC50 ([2]; read-out: IC50) [nM] | Ki [2] [nM]
1 | N[C@H](CSC(=S)NCc1ccccc1)C(=O)O | Not Active | Not Active | Not Active | Not Active | Not Active | Not Active | Not Active |  | 
2 | Cc1cc(C)nc(NS(=O)(=O)c2ccc(N)cc2)n1 [SULFAMETHAZINE] | Not Active | Not Active | Not Active | Not Active |  | Not Active | Not Active |  | 
3 | Cc1cccc(Nc2ccncc2S(=O)(=O)NC(=O)NC(C)C)c1 [TORSEMIDE] | Not Active | Not Active | Not Active | Not Active | Not Active | Not Active | Not Active |  | 
4 | O=C1CCC(N2C(=O)c3ccccc3C2=O)C(=O)N1 (stereo unspecified) [THALIDOMIDE] | Not Active | Not Active | Not Active | Not Active |  | Not Active | Not Active |  | 
5 | CC(C)CC(N(C)C)C1(c2ccc(Cl)cc2)CCC1 (stereo unspecified) [SIBUTRAMINE] | Not Active | Not Active | Not Active | Not Active |  | Not Active | Not Active |  | 
6 | [H]/N=C(/N)N[C@H]1[C@H](O)[C@@H](O)[C@H](O[C@@H]2O[C@@H](C)[C@](O)(C=O)[C@H]2O[C@@H]2O[C@@H](CO)[C@H](O)[C@@H](O)[C@@H]2NC)[C@@H](N/C(N)=N\[H])[C@@H]1O [STREPTOMYCIN] | Not Active | Not Active | Not Active | Not Active | Not Active | Not Active | Not Active |  | 
7 | CC(C)C[C@H](NC(=O)[C@@H](O)[C@H](N)Cc1ccccc1)C(=O)O [UBENIMEX] | Not Active | Not Active | Not Active | Not Active | Not Active | Not Active | Not Active |  | 
8 | CC(C)NCC(O)COc1cccc2ccccc12 (stereo unspecified) [PROPRANOLOL] | Not Active |  |  | Not Active |  |  | Not Active |  | 
9 | Cc1onc(-c2ccccc2)c1-c1ccc(S(N)(=O)=O)cc1 [VALDECOXIB] | Not Active | Not Active | Not Active | Not Active |  | Not Active | Not Active |  | 
10 | CC[C@]1(O)C[C@@H]2CN(CCc3c([nH]c4ccccc34)[C@@](C(=O)OC)(c3cc4c(cc3OC)N(C)[C@H]3[C@@](O)(C(=O)OC)[C@H](OC(C)=O)[C@]5(CC)C=CCN6CC[C@]43[C@@H]65)C2)C1 [VINBLASTINE] | Not Active | Not Active | Not Active | Not Active | Not Active | Not Active | Not Active |  | 
11 | COCCOC(=O)C1=C(C)NC(C)=C(C(=O)OC(C)C)C1c1cccc([N+](=O)[O-])c1 (stereo unspecified) [NIMODIPINE] | Not Active | Not Active | Not Active | Not Active | Not Active | Not Active | Not Active |  | 
12 | CC(=O)N1CCN(c2ccc(OCC3COC(Cn4ccnc4)(c4ccc(Cl)cc4Cl)O3)cc2)CC1 (stereo unspecified) [KETOCONAZOLE] | Not Active | Not Active | Not Active |  | Not Active | Not Active | Not Active | 35700 | 14500
13 | COc1cc(NS(=O)(=O)c2ccc(N)cc2)nc(OC)n1 [SULFADIMETHOXINE] | Not Active | Not Active | Not Active | Not Active | Not Active | Not Active | Not Active |  | 
14 | C[C@]1(Cn2ccnn2)[C@H](C(=O)O)N2C(=O)C[C@H]2S1(=O)=O [TAZOBACTAM] | Not Active | Not Active | Not Active | Not Active | Not Active | Not Active | Not Active |  | 
15 | [Cl-].[Cl-].[Zn+2] [ZINC CHLORIDE] | Not Active | Not Active | Not Active | Not Active | Not Active | Not Active | Not Active |  | 
16 | O=C(c1ccc(OCCN2CCCCC2)cc1)c1c(-c2ccc(O)cc2)sc2cc(O)ccc12 [RALOXIFENE] | Not Active | Not Active | Not Active |  |  | Not Active | Not Active | 2200 | 892
17 | CC/C(=C(/CC)c1ccc(O)cc1)c1ccc(O)cc1 [DIETHYLSTILBESTROL] | Not Active |  |  |  |  | Not Active | Not Active | 19500 | 7890
18 | CN1C(C(=O)Nc2ccccn2)=C(O)c2sccc2S1(=O)=O [TENOXICAM] | Not Active | Not Active | Not Active | Not Active | Not Active | Not Active | Not Active |  | 
19 | COCCCOc1ccnc(C[S+]([O-])c2nc3ccccc3[nH]2)c1C (stereo unspecified) [RABEPRAZOLE] | Not Active | Not Active | Not Active | Not Active |  | Not Active | Not Active |  | 
20 | C=CCN1CC[C@]23c4c5ccc(O)c4O[C@H]2C(=O)CC[C@@]3(O)[C@H]1C5 [NALOXONE] | Not Active |  |  | Not Active |  | Not Active | Not Active |  | 
21 | Clc1ccc2c(c1)C(N1CCNCC1)=Nc1ccccc1O2 [AMOXAPINE] | Not Active |  |  |  | Not Active | Not Active | Not Active | 357 | 144
22 | CC1=C(CC(=O)O)c2cc(F)ccc2/C1=C\c1ccc([S+](C)[O-])cc1 (stereo unspecified) | Not Active | Not Active | Not Active | Not Active |  | Not Active | Not Active |  | 
23 | CC(=O)CC(c1ccccc1)c1c(O)c2ccccc2oc1=O (stereo unspecified) [WARFARIN] | Not Active | Not Active | Not Active | Not Active |  | Not Active | Not Active |  | 
24 | CN1CCC(=C2c3ccccc3C=Cc3ccccc32)CC1 [CYPROHEPTADINE] | Not Active |  |  |  | Not Active | Not Active | Not Active | 241 | 98
25 | COc1cc2c(c(OC)c1OC)-c1ccc(OC)c(=O)cc1[C@@H](NC(C)=O)CC2 [COLCHICINE] | Not Active |  |  | Not Active | Not Active | Not Active | Not Active |  | 
